From ChEMBL document CHEMBL4616688, “PROTAC Compounds Targeting TRK for Use in Cancer Therapeutics” (ACS Med Chem Lett, 2020)

Tested on: KM12
Test: Antiproliferative activity against human KM12 cells expressing TPM3-TRKA assessed as reduction in cell viability measured after 3 days by Celltiter-Glo assay
Format: functional, cell-based
Settings: KM12, 72 h

Point of comparison: `O=C(CN1CCN(c2cccc(-c3cnc4ccc(N5CCC[C@@H]5c5cccc(F)c5)nn34)n2)CC1)NCCOCCNc1ccc2c(c1)C(=O)N(C1CCC(=O)NC1=O)C2=O` (stereo not given in full), IC50 0.9 nM. Against it:
- O=C(CN1CCN(c2cccc(-c3cnc4ccc(N5CCC[C@@H]5c5cccc(F)c5)nn34)n2)CC1)NCCOCCNc1cccc2c1C(=O)N(C1CCC(=O)NC1=O)C2=O (stereo not given in full) — 4.2-fold higher, 3.8 nM
- O=C(CN1CCN(c2cccc(-c3cnc4ccc(N5CCC[C@@H]5c5cccc(F)c5)nn34)n2)CC1)NCCNc1ccc2c(c1)C(=O)N(C1CCC(=O)NC1=O)C2=O (stereo not given in full) — the same, 0.9 nM
- O=C1CCC(N2C(=O)c3ccc(NCCCCC(=O)N4CCN(c5cccc(-c6cnc7ccc(N8CCC[C@@H]8c8cccc(F)c8)nn67)n5)CC4)cc3C2=O)C(=O)N1 (stereo not given in full) — the same, 0.9 nM
- O=C1CCC(N2C(=O)c3ccc(NCCN4CCN(c5cccc(-c6cnc7ccc(N8CCC[C@@H]8c8cccc(F)c8)nn67)n5)CC4)cc3C2=O)C(=O)N1 (stereo not given in full) — 3.8-fold higher, 3.4 nM
- O=C1CCC(N2C(=O)c3ccc(NCCOCCOCCOCCOCCC(=O)N4CCN(c5ccc(C(=O)Nc6n[nH]c7ccc(Cc8cc(F)cc(F)c8)cc67)c(NC6CCOCC6)c5)CC4)cc3C2=O)C(=O)N1 (stereo not given) — 1.8-fold higher, 1.6 nM
- O=C1CCC(N2C(=O)c3ccc(N4CC(C(=O)N5CCN(c6cccc(-c7cnc8ccc(N9CCC[C@@H]9c9cccc(F)c9)nn78)n6)CC5)C4)cc3C2=O)C(=O)N1 (stereo not given in full) — 2.2-fold higher, 2 nM
- OC1CCN(c2cc(-c3cccc(-c4cnc5ccc(N6CCC[C@@H]6c6cccc(F)c6)nn45)n3)ccn2)CC1 — 52-fold higher, 46.7 nM
- O=C1CCC(N2C(=O)c3cccc(NCCCC(=O)N4CCN(c5ccc(C(=O)Nc6n[nH]c7ccc(Cc8cc(F)cc(F)c8)cc67)c(NC6CCOCC6)c5)CC4)c3C2=O)C(=O)N1 (stereo not given) — 1.7-fold higher, 1.5 nM
- CN1CCN(c2ccc(C(=O)Nc3n[nH]c4ccc(Cc5cc(F)cc(F)c5)cc34)c(NC3CCOCC3)c2)CC1 [ENTRECTINIB] — 4.8-fold higher, 4.3 nM
